# According to the NIST ThermoML archive (doi:10.1021/je0601513):
# ± gives the expanded uncertainty stated by the source.
# Columns and labels:
# [1] = refractive index (Na D-line) (dimensionless); xn = mol fraction of the nth substance listed; settings: 101 kPa, Liquid, Standard Abbe refractometry
# [2] = excess molar enthalpy (molar enthalpy of mixing); xn = mol fraction of the nth substance listed; settings: 101 kPa, Liquid
compound,measurement,setting,value
C[S+](C)[O-] [dimethyl sulfoxide] + CCCO,refractive index,"[1]; 288.15 K, x1 = 0.5981",1.4449 ± 0.0006
same,refractive index,"[1]; 288.15 K, x1 = 0.6853",1.4532 ± 0.0006
same,refractive index,"[1]; 288.15 K, x1 = 0.7596",1.4603 ± 0.0006
same,refractive index,"[1]; 288.15 K, x1 = 0.8438",1.4685 ± 0.0006
same,refractive index,"[1]; 288.15 K, x1 = 0.9368",1.4774 ± 0.0006
same,refractive index,"[1]; 298.15 K, x1 = 0.0554",1.3889 ± 0.0006
same,refractive index,"[1]; 298.15 K, x1 = 0.1366",1.3966 ± 0.0006
same,refractive index,"[1]; 298.15 K, x1 = 0.22",1.4045 ± 0.0006
same,refractive index,"[1]; 298.15 K, x1 = 0.2987",1.4119 ± 0.0006
same,refractive index,"[1]; 298.15 K, x1 = 0.4289",1.4239 ± 0.0006
same,refractive index,"[1]; 298.15 K, x1 = 0.5022",1.4307 ± 0.0006
same,refractive index,"[1]; 298.15 K, x1 = 0.5992",1.4398 ± 0.0006
same,refractive index,"[1]; 298.15 K, x1 = 0.677",1.4472 ± 0.0006
same,refractive index,"[1]; 298.15 K, x1 = 0.7656",1.4558 ± 0.0006
same,refractive index,"[1]; 298.15 K, x1 = 0.8358",1.4627 ± 0.0006
same,refractive index,"[1]; 298.15 K, x1 = 0.9181",1.4705 ± 0.0006
same,refractive index,"[1]; 298.15 K, x1 = 0.9646",1.4747 ± 0.0006
same,refractive index,"[1]; 308.15 K, x1 = 0.0537",1.3843 ± 0.0006
same,refractive index,"[1]; 308.15 K, x1 = 0.1336",1.3916 ± 0.0006
same,refractive index,"[1]; 308.15 K, x1 = 0.2147",1.3991 ± 0.0006
same,refractive index,"[1]; 308.15 K, x1 = 0.2987",1.407 ± 0.0006
same,refractive index,"[1]; 308.15 K, x1 = 0.3876",1.4152 ± 0.0006
same,refractive index,"[1]; 308.15 K, x1 = 0.4707",1.4229 ± 0.0006
same,refractive index,"[1]; 308.15 K, x1 = 0.5552",1.4308 ± 0.0006
same,refractive index,"[1]; 308.15 K, x1 = 0.6418",1.4389 ± 0.0006
same,refractive index,"[1]; 308.15 K, x1 = 0.7191",1.4462 ± 0.0006
same,refractive index,"[1]; 308.15 K, x1 = 0.7998",1.454 ± 0.0006
same,refractive index,"[1]; 308.15 K, x1 = 0.877",1.4614 ± 0.0006
same,refractive index,"[1]; 308.15 K, x1 = 0.965",1.4698 ± 0.0006
same,excess molar enthalpy,"[2]; 288.15 K, x1 = 0.042",0.0514 ± 0.00239 kcal/mol
same,excess molar enthalpy,"[2]; 288.15 K, x1 = 0.0807",0.0896 ± 0.00263 kcal/mol
same,excess molar enthalpy,"[2]; 288.15 K, x1 = 0.1163",0.118 ± 0.00263 kcal/mol
same,excess molar enthalpy,"[2]; 288.15 K, x1 = 0.1493",0.139 ± 0.00287 kcal/mol
same,excess molar enthalpy,"[2]; 288.15 K, x1 = 0.2084",0.168 ± 0.00335 kcal/mol
same,excess molar enthalpy,"[2]; 288.15 K, x1 = 0.2598",0.182 ± 0.00335 kcal/mol
same,excess molar enthalpy,"[2]; 288.15 K, x1 = 0.3449",0.196 ± 0.00359 kcal/mol
same,excess molar enthalpy,"[2]; 288.15 K, x1 = 0.4124",0.196 ± 0.00359 kcal/mol
same,excess molar enthalpy,"[2]; 288.15 K, x1 = 0.5129",0.189 ± 0.00359 kcal/mol
same,excess molar enthalpy,"[2]; 288.15 K, x1 = 0.6124",0.173 ± 0.00335 kcal/mol
same,excess molar enthalpy,"[2]; 288.15 K, x1 = 0.6781",0.158 ± 0.00311 kcal/mol
same,excess molar enthalpy,"[2]; 288.15 K, x1 = 0.7595",0.128 ± 0.00263 kcal/mol
same,excess molar enthalpy,"[2]; 288.15 K, x1 = 0.8456",0.093 ± 0.00215 kcal/mol
same,excess molar enthalpy,"[2]; 288.15 K, x1 = 0.8634",0.0822 ± 0.00191 kcal/mol
same,excess molar enthalpy,"[2]; 288.15 K, x1 = 0.8939",0.0676 ± 0.00191 kcal/mol
same,excess molar enthalpy,"[2]; 288.15 K, x1 = 0.9267",0.0488 ± 0.00167 kcal/mol
same,excess molar enthalpy,"[2]; 288.15 K, x1 = 0.9619",0.0265 ± 0.00143 kcal/mol
same,excess molar enthalpy,"[2]; 298.15 K, x1 = 0.0422",0.0495 ± 0.00215 kcal/mol
same,excess molar enthalpy,"[2]; 298.15 K, x1 = 0.0809",0.0875 ± 0.00263 kcal/mol
same,excess molar enthalpy,"[2]; 298.15 K, x1 = 0.1166",0.117 ± 0.00287 kcal/mol
same,excess molar enthalpy,"[2]; 298.15 K, x1 = 0.1497",0.141 ± 0.00287 kcal/mol
same,excess molar enthalpy,"[2]; 298.15 K, x1 = 0.2089",0.167 ± 0.00335 kcal/mol
same,excess molar enthalpy,"[2]; 298.15 K, x1 = 0.2604",0.182 ± 0.00359 kcal/mol
same,excess molar enthalpy,"[2]; 298.15 K, x1 = 0.3456",0.199 ± 0.00382 kcal/mol
same,excess molar enthalpy,"[2]; 298.15 K, x1 = 0.4131",0.201 ± 0.00382 kcal/mol
same,excess molar enthalpy,"[2]; 298.15 K, x1 = 0.5137",0.194 ± 0.00359 kcal/mol
same,excess molar enthalpy,"[2]; 298.15 K, x1 = 0.6131",0.175 ± 0.00335 kcal/mol
same,excess molar enthalpy,"[2]; 298.15 K, x1 = 0.6787",0.16 ± 0.00311 kcal/mol
same,excess molar enthalpy,"[2]; 298.15 K, x1 = 0.7602",0.134 ± 0.00263 kcal/mol
same,excess molar enthalpy,"[2]; 298.15 K, x1 = 0.8086",0.111 ± 0.00239 kcal/mol
same,excess molar enthalpy,"[2]; 298.15 K, x1 = 0.8638",0.0853 ± 0.00215 kcal/mol
same,excess molar enthalpy,"[2]; 298.15 K, x1 = 0.8942",0.0674 ± 0.00191 kcal/mol
same,excess molar enthalpy,"[2]; 298.15 K, x1 = 0.9269",0.0492 ± 0.00167 kcal/mol
same,excess molar enthalpy,"[2]; 298.15 K, x1 = 0.9621",0.0265 ± 0.00143 kcal/mol
same,excess molar enthalpy,"[2]; 308.15 K, x1 = 0.0421",0.0507 ± 0.00215 kcal/mol
same,excess molar enthalpy,"[2]; 308.15 K, x1 = 0.0808",0.0872 ± 0.00239 kcal/mol
same,excess molar enthalpy,"[2]; 308.15 K, x1 = 0.1234",0.122 ± 0.00287 kcal/mol
same,excess molar enthalpy,"[2]; 308.15 K, x1 = 0.1495",0.14 ± 0.00287 kcal/mol
same,excess molar enthalpy,"[2]; 308.15 K, x1 = 0.2087",0.167 ± 0.00335 kcal/mol
same,excess molar enthalpy,"[2]; 308.15 K, x1 = 0.2601",0.183 ± 0.00359 kcal/mol
same,excess molar enthalpy,"[2]; 308.15 K, x1 = 0.3454",0.198 ± 0.00382 kcal/mol
same,excess molar enthalpy,"[2]; 308.15 K, x1 = 0.4128",0.199 ± 0.00382 kcal/mol
same,excess molar enthalpy,"[2]; 308.15 K, x1 = 0.5134",0.193 ± 0.00359 kcal/mol
same,excess molar enthalpy,"[2]; 308.15 K, x1 = 0.612",0.175 ± 0.00335 kcal/mol
same,excess molar enthalpy,"[2]; 308.15 K, x1 = 0.6784",0.16 ± 0.00311 kcal/mol
same,excess molar enthalpy,"[2]; 308.15 K, x1 = 0.7599",0.129 ± 0.00263 kcal/mol
same,excess molar enthalpy,"[2]; 308.15 K, x1 = 0.8084",0.111 ± 0.00239 kcal/mol
same,excess molar enthalpy,"[2]; 308.15 K, x1 = 0.8636",0.082 ± 0.00191 kcal/mol
same,excess molar enthalpy,"[2]; 308.15 K, x1 = 0.8941",0.0698 ± 0.00191 kcal/mol
same,excess molar enthalpy,"[2]; 308.15 K, x1 = 0.9268",0.049 ± 0.00167 kcal/mol
same,excess molar enthalpy,"[2]; 308.15 K, x1 = 0.962",0.027 ± 0.00143 kcal/mol
